Reference: patent US20240058450A1, “BCL-XL Inhibitory Compounds Having Low Cell Permeability and Antibody Drug Conjugates Including the Same” (AbbVie Inc., priority 2014, published 2024)
Read-outs that look alike come from different tables or passages of the source.

How the values were obtained:
Bcl-xL = Bcl-xL (Homo sapiens, UniProt Q07817); experiment: Time Resolved-Fluorescence Resonance Energy Transfer (TR-FRET) binding assay, competition with probe F-Bak
Experimental: Tb-anti-GST antibody was purchased from Invitrogen (Catalog No. PV4216).
For the assay, test compounds were serially diluted in DMSO starting at 50 μM (2× starting concentration; 10% DMSO) and 10 μL transferred into a 384-well plate. 10 μL of a protein/probe/antibody mix was then added to each well at final concentrations listed below:
The samples were then mixed on a shaker for 1 minute and incubated for an additional 2 hours at room temperature. For each assay plate, a probe/antibody and protein/antibody/probe mixture were included as a negative and a positive control, respectively. Fluorescence was measured on the Envision (Perkin Elmer) using a 340/35 nm excitation filter and 520/525 (F-Bak) and 495/510 nm (Tb-labeled anti-his antibody) emission filters. Dissociation constants (Ki) were determined using Wang's equation (Wang, 1995, FEBS Lett. 360:111-114). The TR-FRET assay can be performed in the presence of varying concentrations of human serum (HS) or fetal bovine serum (FBS). Compounds were tested both without HS and in the presence of 1% HS.

[1] = test system: Molt-4 human acute lymphoblastic leukemia cells; experiment: Molt-4 cell viability assay (CellTiter-Glo, 48 hours, 10% HS); format: cell-based; details: non-permeabilized cells
Experimental: The ability of Bcl-xL inhibitors that are able to traverse cell membranes to inhibit Bcl-xL can be determined in cell-based killing assays using a variety of cell lines and mouse tumor models. For example, their activity on cell viability can be assessed on a panel of cultured tumorigenic and non-tumorigenic cell lines, as well as primary mouse or human cell populations.
In one exemplary set of conditions, Molt-4 (ATCC, Manassas, VA) human acute lymphoblastic leukemia cells were plated 12,500 cells per well in 384-well tissue culture plates (Corning, Corning, NY) in a total volume of 25 μL tissue culture medium supplemented with 10% human serum (Sigma-Aldrich, St. Louis, MO) and treated with a 3-fold serial dilution of the compounds of interest from 10 μM to 0.0005 μM. Each concentration was tested in duplicate at least 3 separate times. The number of viable cells following 48 hours of compound treatment was determined using the CellTiter-Glo®, Luminescent Cell Viability Assay according to the manufacturer's recommendations (Promega Corp., Madison, WI). Compounds were tested in the presence of 10% HS.

[2] = in the presence of 1% HS, read-out: Bcl-xL Binding Ki (nM, 1% HS)
[3] = without HS, read-out: Bcl-xL Binding Ki

Chain of Bcl-xL (Q07817 whole entry): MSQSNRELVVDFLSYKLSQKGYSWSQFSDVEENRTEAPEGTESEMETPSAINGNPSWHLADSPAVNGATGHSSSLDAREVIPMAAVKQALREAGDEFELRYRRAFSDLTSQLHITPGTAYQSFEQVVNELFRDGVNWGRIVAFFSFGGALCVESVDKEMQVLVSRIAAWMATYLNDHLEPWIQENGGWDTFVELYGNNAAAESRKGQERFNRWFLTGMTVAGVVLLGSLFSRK

| Ki (Bcl-xL; [2]) [nM] | Ki (Bcl-xL; [3]) [nM] | EC50 ([1]; Homo sapiens, MOLT-4, 48 h) [nM] | SMILES | EC50 [1] [nM] |
| --- | --- | --- | --- | --- |
| 0.37 | 0.011 | 252 | Cc1c(-c2ccc(N3CCc4cccc(C(=O)Nc5nc6ccccc6s5)c4C3)nc2C(=O)O)cnn1CC12CC3(C)CC(C)(C1)CC(OCCNC[C@H](O)[C@@H](O)CO)(C3)C2 [Example 1.81, 6-[8-(1,3-benzothiazol-2-ylcarbamoyl)-3,4-dihydroisoquinolin-2 (1H)-yl]-3-(1-{[3,5-dimethyl-7-(2-{[(2S,3S)-2,3,4-trihydroxybutyl]amino}ethoxy)tricyclo[3.3.1.1^3,7]dec-1-yl]methyl}-5-methyl-1H-pyrazol-4-yl}pyridine-2-carboxylic acid] | – |
| 0.24 | – | 12 | Cc1c(-c2ccc(N3CCc4cccc(C(=O)Nc5nc6ccccc6s5)c4C3)nc2C(=O)O)cnn1CC12CC3(C)CC(C)(C1)CC(OCCNCC(O)CO)(C3)C2 (centres unmarked) [Example 1.7, 6-[8-(1,3-benzothiazol-2-ylcarbamoyl)-3,4-dihydroisoquinolin-2 (1H)-yl]-3-{1-[(3-{2-[(2,3-dihydroxypropyl)amino]ethoxy}-5,7-dimethyltricyclo[3.3.1.1^3,7]dec-1-yl)methyl]-5-methyl-1H-pyrazol-4-yl}pyridine-2-carboxylic acid] | – |
| 0.09 | < 0.001 | 26 | Cc1c(-c2ccc(N3CCc4cccc(C(=O)Nc5nc6ccccc6s5)c4C3)nc2C(=O)O)cnn1CC12CC3(C)CC(C)(C1)CC(OCCNCCOCCOCC(=O)O)(C3)C2 [Example 1.1, 6-[8-(1,3-benzothiazol-2-ylcarbamoyl)-3,4-dihydroisoquinolin-2 (1H)-yl]-3-[1-({3-[2-({2-[2-(carboxymethoxy)ethoxy]ethyl}amino)ethoxy]-5,7-dimethyltricyclo[3.3.1.1^3,7]dec-1-yl]methyl)-5-methyl-1H-pyrazol-4-yl]pyridine-2-carboxylic acid] | – |
| 0.46 | 0.023 | 373 | Cc1c(-c2ccc(N3CCc4cccc(C(=O)Nc5nc6ccccc6s5)c4C3)nc2C(=O)O)cnn1CC12CC3(C)CC(C)(C1)CC(OCCNC[C@H](O)[C@H](O)[C@@H](O)[C@H](O)[C@H](O)CO)(C3)C2 [Example 1.82] | – |
| 0.17 | < 0.001 | 218 | Cc1c(-c2ccc(N3CCc4cccc(C(=O)Nc5nc6ccccc6s5)c4C3)nc2C(=O)O)cnn1CC12CC3(C)CC(C)(C1)CC(OCCOCCNCCCP(=O)(O)O)(C3)C2 [Example 1.16, 6-[8-(1,3-benzothiazol-2-ylcarbamoyl)-3,4-dihydroisoquinolin-2 (1H)-yl]-3-(1-{[3,5-dimethyl-7-(2-{2-[(3-phosphonopropyl)amino]ethoxy}ethoxy)tricyclo[3.3.1.1^3,7]dec-1-yl]methyl}-5-methyl-1H-pyrazol-4-yl}pyridine-2-carboxylic acid] | – |
| 0.049 | < 0.001 | 425 | Cc1c(-c2ccc(N3CCc4cccc(C(=O)Nc5nc6ccccc6s5)c4C3)nc2C(=O)O)cnn1CC12CC3(C)CC(C)(C1)CC(OCCN(CCS(=O)(=O)O)C1CNC1)(C3)C2 [Example 1.60, 3-{1-[(3-{2-[azetidin-3-yl(2-sulfoethyl)amino]ethoxy}-5,7-dimethyltricyclo[3.3.1.1^3,7]dec-1-yl)methyl]-5-methyl-1H-pyrazol-4-yl}-6-[8-(1,3-benzothiazol-2-ylcarbamoyl)-3,4-dihydroisoquinolin-2 (1H)-yl]pyridine-2-carboxylic acid] | – |
| 0.046 | < 0.001 | 568 | Cc1c(-c2ccc(N3CCc4cccc(C(=O)Nc5nc6ccccc6s5)c4C3)nc2C(=O)O)cnn1CC12CC3(C)CC(C)(C1)CC(OCCNC1CCN(CC(=O)O)CC1)(C3)C2 [Example 1.28, 6-[8-(1,3-benzothiazol-2-ylcarbamoyl)-3,4-dihydroisoquinolin-2 (1H)-yl]-3-(1-{[3-(2-{[1-(carboxymethyl)piperidin-4-yl]amino}ethoxy)-5,7-dimethyltricyclo[3.3.1.1^3,7]dec-1-yl]methyl}-5-methyl-1H-pyrazol-4-yl}pyridine-2-carboxylic acid] | – |

The remaining lines, values behind:

| SMILES | Ki (Bcl-xL; [2]) [nM] | Ki (Bcl-xL; [3]) [nM] | EC50 ([1]; Homo sapiens, MOLT-4, 48 h) [nM] | EC50 [1] [nM] |
| --- | --- | --- | --- | --- |
| Cc1c(-c2ccc(N3CCc4cccc(C(=O)Nc5nc6ccccc6s5)c4C3)nc2C(=O)O)cnn1CC12CC3(C)CC(C)(C1)CC(OCCN(C)C(=O)[C@H](N)CC(=O)O)(C3)C2 [Example 1.27] | 0.18 | < 0.001 | – | 935 |
| Cc1c(-c2ccc(-c3cc4cccc(C(=O)Nc5nc6ccccc6s5)c4[nH]3)nc2C(=O)O)cnn1CC12CC3(C)CC(C)(C1)CC(OCCNCCS(=O)(=O)O)(C3)C2 [Example 1.74, 6-[7-(1,3-benzothiazol-2-ylcarbamoyl)-1H-indol-2-yl]-3-{1-[(3,5-dimethyl-7-{2-[(2-sulfoethyl)amino]ethoxy}tricyclo[3.3.1.1^3,7]dec-1-yl)methyl]-5-methyl-1H-pyrazol-4-yl}pyridine-2-carboxylic acid] | 0.016 | < 0.01 | 5.7 | – |
| Cc1c(-c2ccc(N3CCc4cccc(C(=O)Nc5nc6ccccc6s5)c4C3)nc2C(=O)O)cnn1CC12CC3(C)CC(C)(C1)CC(OCCNCc1ccc(S(=O)(=O)N[C@@H]4[C@@H](O)[C@H](O)[C@@H](CO)O[C@H]4O)cc1)(C3)C2 [Example 1.8, 2-({[4-({[2-({3-[(4-{6-[8-(1,3-benzothiazol-2-ylcarbamoyl)-3,4-dihydroisoquinolin-2 (1H)-yl]-2-carboxypyridin-3-yl}-5-methyl-1H-pyrazol-1-yl)methyl]-5,7-dimethyltricyclo[3.3.1.1^3,7]dec-1-yl}oxy)ethyl]amino}methyl)phenyl]sulfonyl}amino)-2-deoxy-beta-D-glucopyranose] | 0.19 | 0.0019 | 108 | – |
| Cc1c(-c2ccc(N3CCc4cccc(C(=O)Nc5nc6ccccc6s5)c4C3)nc2C(=O)O)cnn1CC12CC3(C)CC(C)(C1)CC(OCCN(CCCC(=O)O)C1CCNCC1)(C3)C2 [Example 1.42, 6-[8-(1,3-benzothiazol-2-ylcarbamoyl)-3,4-dihydroisoquinolin-2 (1H)-yl]-3-{1-[(3-{2-[(3-carboxypropyl)(piperidin-4-yl)amino]ethoxy}-5,7-dimethyltricyclo[3.3.1.1^3,7]dec-1-yl)methyl]-5-methyl-1H-pyrazol-4-yl}pyridine-2-carboxylic acid] | 0.133 | < 0.001 | 482 | – |
| Cc1c(-c2ccc(-c3ccc4cccc(C(=O)Nc5nc6ncccc6s5)c4c3)nc2C(=O)O)cnn1CC12CC3(C)CC(C)(C1)CC(OCCNCCS(=O)(=O)O)(C3)C2 [Example 1.54, 3-{1-[(3,5-dimethyl-7-[2-[(2-sulfoethyl)amino]ethoxy}tricyclo[3.3.1.1^3,7]dec-1-yl)methyl]-5-methyl-1H-pyrazol-4-yl}-6-[8-([1,3]thiazolo[4,5-b]pyridin-2-ylcarbamoyl)naphthalen-2-yl]pyridine-2-carboxylic acid] | 0.11 | < 0.001 | > 10000 | – |
| Cc1c(-c2ccc(N3CCc4cccc(C(=O)Nc5nc6ccccc6s5)c4C3)nc2C(=O)O)cnn1CC12CC3(C)CC(C)(C1)CC(OCCN(CCC(=O)O)C1CCNCC1)(C3)C2 [Example 1.36, 6-[8-(1,3-benzothiazol-2-ylcarbamoyl)-3,4-dihydroisoquinolin-2 (1H)-yl]-3-{1-[(3-{2-[(2-carboxyethyl)(piperidin-4-yl)amino]ethoxy}-5,7-dimethyltricyclo[3.3.1.1^3,7]dec-1-yl)methyl]-5-methyl-1H-pyrazol-4-yl}pyridine-2-carboxylic acid] | 0.0635 | < 0.001 | 405 | – |
| Cc1c(-c2ccc(-c3ccc4c(c3)N(C(=O)Nc3nc5ccccc5s3)CCC4)nc2C(=O)O)cnn1CC12CC3(C)CC(C)(C1)CC(OCCN(C)C(=O)[C@@H](N)CS(=O)(=O)O)(C3)C2 [Example 1.21, 6-[1-(1,3-benzothiazol-2-ylcarbamoyl)-1,2,3,4-tetrahydroquinolin-7-yl]-3-(1-[(3,5-dimethyl-7-(2-[methyl(3-sulfo-L-alanyl)amino]ethoxy}tricyclo[3.3.1.1^3,7]dec-1-yl)methyl]-5-methyl-1H-pyrazol-4-yl)pyridine-2-carboxylic acid] | 0.22 | 0.004 | 420 | – |
| Cc1c(-c2ccc(-c3ccc4cccc(C(=O)Nc5nc6ccccc6s5)c4c3)nc2C(=O)O)cnn1CC12CC3(C)CC(C)(C1)CC(OCCNCCS(=O)(=O)O)(C3)C2 [Example 1.43, 6-[8-(1,3-benzothiazol-2-ylcarbamoyl)naphthalen-2-yl]-3-{1-[(3,5-dimethyl-7-{2-[(2-sulfoethyl)amino]ethoxy}tricyclo[3.3.1.1^3,7]dec-1-yl)methyl]-5-methyl-1H-pyrazol-4-yl}pyridine-2-carboxylic acid] | 0.86 | < 0.001 | 185 | – |
